These results are taken from US11566007B2, “Ras inhibitors” (Revolution Medicines, Inc., priority 2019, dated 2023).

Test [1] has as its target NRAS G12C (Homo sapiens (Human), UniProt P01111+P62937, G12C). The test is described as follows: Ras-Raf (BRAF RBD) disruption / FRET / MOA assay, NRAS G12C. The class given is biochemical. To be noted: read-out: IC50* NRAS G12C FRET data. In short, it runs like this:
(§1)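 Compound-driven ternary complex of nucleotide-loaded Ras with cyclophilin A, disrupting BRAF RBD binding. 10-point 3-fold dilution from 30 μM final, 3 h at 25° C, then anti-His Eu-W1024 (10 nM) and anti-GST allophycocyanin (50 nM) for 1.5 h. IC50 from TR-FRET ratio decrease versus DMSO.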

The test system of test [2] is NCI-H358 cells (K-Ras G12C). The test is described as follows: Potency assay: pERK in NCI-H358 cells. The class given is cell-based, human. To be noted: Homo sapiens, NCI-H358; H358 KRAS G12C; read-out: pERK EC50. The procedure, abridged: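 Compounds are dosed as ten 3-fold dilutions from a 10 mM DMSO stock, in duplicate, and left on cells for 4 h at 37 °C, 5% CO2. Phospho-ERK1/2 is then quantified by AlphaLISA SureFire Ultra or In-Cell Western, and IC50 is derived from a 4-parameter sigmoid against log concentration.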

Test [3] has as its target K-Ras G13C (Homo sapiens (Human), UniProt P01116+P62937, G13C). The test is described as follows: Ras-Raf (BRAF RBD) disruption / FRET / MOA assay, KRAS G13C. It is filed as biochemical. To be noted: KRAS G13C; Ras-Raf disruption/FRET/MOA assay; read-out: IC50* KRAS G13C FRET data. In short, it runs like this:
as §1

Test [4] addresses NRAS WT (Homo sapiens (Human), UniProt P01111+P62937). The test is described as follows: Ras-Raf (BRAF RBD) disruption / FRET / MOA assay, NRAS WT. The class given is biochemical. To be noted: read-out: IC50* NRAS WT FRET data. The procedure, abridged: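 Compounds (30 μM top final, 10-point 3-fold dilutions) incubated 3 h at 25° C with nucleotide-loaded Ras, cyclophilin A and BRAF RBD. Detection with 10 nM anti-His Eu-W1024 and 50 nM anti-GST allophycocyanin over another 1.5 h. Lowered TR-FRET ratio relative to DMSO wells gives IC50.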

For test [5], the target named is KRAS G12V (Homo sapiens (Human), UniProt P01116+P62937, G12V). Nature of the test: Ras-Raf (BRAF RBD) disruption / FRET / MOA assay, KRAS G12V. It is filed as biochemical. The following applies: read-out: IC50* KRAS G12V FRET data. The procedure, abridged:
as §1

“And” between values parts separate entries of the source, which are not always exact repeats. Equal values may be shown once. Where only a bound is given, the exact number is not on record here.

Sequence of KRAS G12V (P01116-2 other isoform, or with tags, fused parts or gaps G12V): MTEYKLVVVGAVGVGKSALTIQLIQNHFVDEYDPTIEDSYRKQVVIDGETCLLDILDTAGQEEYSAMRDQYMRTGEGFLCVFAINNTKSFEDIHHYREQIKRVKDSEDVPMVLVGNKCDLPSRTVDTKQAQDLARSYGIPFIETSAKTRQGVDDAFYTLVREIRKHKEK
Sequence of KRAS G12V (P62937 whole entry): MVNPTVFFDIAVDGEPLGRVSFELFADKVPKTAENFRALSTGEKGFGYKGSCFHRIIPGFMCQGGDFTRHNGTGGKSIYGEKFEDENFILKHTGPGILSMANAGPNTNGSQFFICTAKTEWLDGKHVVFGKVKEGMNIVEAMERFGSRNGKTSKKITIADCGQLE
Sequence of K-Ras G13C (P01116-2 other isoform, or with tags, fused parts or gaps G13C): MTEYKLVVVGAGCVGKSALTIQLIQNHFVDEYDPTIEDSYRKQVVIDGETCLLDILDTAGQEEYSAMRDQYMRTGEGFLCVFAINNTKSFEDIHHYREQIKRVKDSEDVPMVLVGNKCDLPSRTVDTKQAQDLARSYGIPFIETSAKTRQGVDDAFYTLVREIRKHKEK
Sequence of K-Ras G13C (P62937 whole entry): as the sequence (P62937 whole entry) above
Sequence of NRAS WT (P01111 whole entry): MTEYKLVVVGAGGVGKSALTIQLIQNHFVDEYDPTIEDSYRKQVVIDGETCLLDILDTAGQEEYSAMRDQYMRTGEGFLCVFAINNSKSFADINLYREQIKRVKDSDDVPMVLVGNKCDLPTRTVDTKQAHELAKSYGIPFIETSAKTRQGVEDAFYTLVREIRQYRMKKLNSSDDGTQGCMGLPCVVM
Sequence of NRAS WT (P62937 whole entry): as the sequence (P62937 whole entry) above
Sequence of NRAS G12C (P01111 whole entry G12C): as the sequence (P01111 whole entry) above, with G12C counted along it
Sequence of NRAS G12C (P62937 whole entry): as the sequence (P62937 whole entry) above

What is called IC50 is the concentration needed to halve the response being measured. Broadly, the EC50 is the midpoint of the concentration-response curve. `C=CC(=O)N1CC[C@H](C(=O)N(C)[C@H](C(=O)N[C@H]2Cc3cc(cc(C(F)F)c3)-c3ccc4c(c3)c(c(-c3cccnc3[C@H](C)OC)n4CC)CC(C)(C)COC(=O)[C@@H]3CCCN(N3)C2=O)C(C)C)C1` (atropisomer, axis not shown) [Example A341, (3S)-1-acryloyl-N-((2S)-1-(((6^3S,4S)-2^5-(difluoromethyl)-1^1-ethyl-1^2-(2-((S)-1-methoxyethyl)pyridin-3-yl)-10,10-dimethyl-5,7-dioxo-6^1,6^2,6^3,6^4,6^5,6^6-hexahydro-1^1H-8-oxa-1(5,3)-indola-6(1,3)-pyridazina-2(1,3)-benzenacycloundecaphane-4-yl)amino)-3-methyl-1-oxobutan-2-yl)-N-methylpyrrolidine-3-carboxamide]: the IC50 was in the range of 0.1 to 1 µM in test [1], 0.1 to 1 µM in test [3], 1 to 10 µM in test [4] and 1 to 10 µM in test [5]. Moreover, the EC50 in test [2] was under 5 µM.

With `CO[C@@H](C)c1ncccc1-c1c2c3cc(ccc3n1CC(F)(F)F)-c1cccc(c1)C[C@H](NC(=O)[C@H](C(C)C)N(C)C(=O)N1CCC3(CC1)CN(C(=O)/C=C/CN(C)C)C3)C(=O)N1CCC[C@H](N1)C(=O)OCC(C)(C)C2` (atropisomer, axis not shown) [Example A555], the IC50 lay within 0.1 to 1 µM in test [1], 0.01 to 0.1 µM in test [3], 0.1 to 1 µM in test [4] and 0.1 to 1 µM in test [5]. For the same molecule, the EC50 in test [2] is under 5 µM.

Consider `C=CC(=O)N1C[C@H](C)N(C(=O)N(C)[C@H](C(=O)N[C@H]2Cc3nc(cs3)-c3ccc4c(c3)c(c(-c3cccnc3[C@H](C)OC)n4CC)CC(C)(C)COC(=O)[C@@H]3CCCN(N3)C2=O)C(C)C)[C@@H](C)C1` (atropisomer, axis not shown) [Example A386], for which the IC50 lay in the range of 0.01 to 0.1 µM in test [1], 0.1 to 1 µM in test [3], 0.01 to 0.1 µM in test [4] and 0.1 to 1 µM in test [5]. In test [2], the EC50 is under 5 µM.

With `CCn1c(-c2cccnc2[C@H](C)OC)c2c3cc(ccc31)-c1csc(n1)C[C@H](NC(=O)[C@H](C(C)C)N(C)C(=O)N1CCC13CN(C(=O)C#CC(C)(C)N(C)C)C3)C(=O)N1CCC[C@H](N1)C(=O)OCC(C)(C)C2` (atropisomer, axis not shown) [Example A656], the IC50 in test [1] lay in the range of 0.1 to 1 µM; in test [3] it was 1 to 10 µM; in test [4] it was 0.1 to 1 µM; in test [5], 1 to 10 µM. The concentration for a half-maximal effect (EC50) in test [2] was under 5 µM.

Turning to `C=CC(=O)N1CC[C@H](C(=O)N(C)[C@H](C(=O)N[C@H]2Cc3cccc(c3)-c3ccc4c(c3)c(c(-c3cnccc3[C@H](C)OC)n4CC)CC(C)(C)COC(=O)[C@@H]3CCCN(N3)C2=O)C(C)C)C1` (single isomer, unassigned) [Example A115], the IC50 in test [1] was 0.01 to 0.1 µM and 0.1 to 1 µM; in test [3] it was 1 to 10 µM; in test [4], 1 to 10 µM; in test [5], 1 to 10 µM. Further, the EC50 in test [2] was under 5 µM.

As for `CCn1c(-c2cccnc2[C@H](C)OC)c2c3cc(ccc31)N1CCO[C@@H](C[C@H](NC(=O)[C@@H](COC3CN(C(=O)C#CC(C)(C)N(C)C)C3)C(C)C)C(=O)N3CCC[C@H](N3)C(=O)OCC(C)(C)C2)C1` (atropisomer, axis not shown) [Example A377, (2R)-2-(((1-(4-(dimethylamino)-4-methylpent-2-ynoyl)azetidin-3-yl)oxy)methyl)-N-((2^2S,6^3S,4S)-1^1-ethyl-1^2-(2-((S)-1-methoxyethyl)pyridin-3-yl)-10,10-dimethyl-5,7-dioxo-6^1,6^2,6^3,6^4,6^5,6^6-hexahydro-1^1H-8-oxa-2(4,2)-morpholina-1(5,3)-indola-6(1,3)-pyridazinacycloundecaphane-4-yl)-3-methylbutanamide], the IC50 in test [1] was under 0.01 µM; in test [3], 1 to 10 µM; in test [4], over 10 µM; in test [5] it was over 10 µM. In test [2], the EC50 is under 5 µM.

Regarding `CCn1c(-c2cccnc2[C@H](C)OC)c2c3cc(ccc31)-c1cccc(c1)C[C@H](NC(=O)[C@@H](COC1CN(C(=O)C#C[C@@H]3OCCCN3C)C1)C(C)C)C(=O)N1CCC[C@H](N1)C(=O)OCC(C)(C)C2` (atropisomer, axis not shown) [Example A648], the IC50 in test [1] was 0.1 to 1 µM; in test [3] it was 1 to 10 µM; in test [4], 1 to 10 µM; in test [5], over 10 µM. In addition, the EC50 in test [2] is under 5 µM.

With `C=CC(=O)N1CC[C@H](C(=O)N(C)[C@H](C(=O)N[C@H]2Cc3cccc(c3)-c3ccc4c(c3)c(c(-c3cc5c(nc3[C@H](C)OC)CCN(C)C5)n4CC)CC(C)(C)COC(=O)[C@@H]3CCCN(N3)C2=O)C(C)C)C1` (atropisomer, axis not shown) [Example A461], the IC50 in test [1] lay in the range of 0.1 to 1 µM; in test [3], 1 to 10 µM; in test [4] it was 1 to 10 µM; in test [5] it was 1 to 10 µM. In addition, the EC50 in test [2] was under 5 µM.

In the case of `C=CC(=O)N1CC[C@@]2(COCCN2C(=O)N(C)[C@H](C(=O)N[C@H]2Cc3nc(cs3)-c3ccc4c(c3)c(c(-c3cccnc3[C@H](C)OC)n4CC)CC(C)(C)COC(=O)[C@@H]3CCCN(N3)C2=O)C(C)C)C1` (atropisomer, axis not shown) [Example A677], the IC50 in test [1] fell in the range of 0.1 to 1 µM; in test [3], 1 to 10 µM; in test [4], 0.1 to 1 µM; in test [5], 1 to 10 µM. Also, the EC50 in test [2] is under 5 µM.

Regarding `C=CC(=O)N1CC[C@H](C(=O)N(C)[C@H](C(=O)N[C@H]2Cc3cc(O)cc(c3)-c3ccc4c(c3)c(c(-c3cc(C#N)cnc3COC)n4CC)CC(C)(C)COC(=O)[C@@H]3CCCN(N3)C2=O)C(C)C)C1` [Example A105], the IC50 in test [1] lay in the range of 0.01 to 0.1 µM; in test [3], 0.1 to 1 µM; in test [4], 0.1 to 1 µM; in test [5], 0.1 to 1 µM. Besides, in test [2], the EC50 is under 5 µM.

As to `C=CC(=O)N1CC[C@@]2(C1)CN(C(=O)N(C)[C@H](C(=O)N[C@H]1Cc3nc(cs3)-c3ccc4c(c3)c(c(-c3cccnc3[C@H](C)OC)n4CC)CC(C)(C)COC(=O)[C@@H]3CCCN(N3)C1=O)C(C)C)CCO2` (atropisomer, axis not shown) [Example A353], the IC50 in test [1] fell in the range of 0.01 to 0.1 µM; in test [3] it was 0.1 to 1 µM; in test [4], 0.1 to 1 µM; in test [5] it was 0.1 to 1 µM. In test [2], the EC50 is under 5 µM.

On to `C=CC(=O)N(C)[C@H]1CN(C(=O)N(C)[C@H](C(=O)N[C@H]2Cc3nc(cs3)-c3ccc4c(c3)c(c(-c3cccnc3[C@H](C)OC)n4CC)CC(C)(C)COC(=O)[C@@H]3CCCN(N3)C2=O)C(C)C)C[C@H]1F` (atropisomer, axis not shown) [Example A631], for which the IC50 in test [1] is 0.01 to 0.1 µM; in test [3], 0.1 to 1 µM; in test [4] it was 0.1 to 1 µM; in test [5], 0.1 to 1 µM. Further, the EC50 in test [2] is under 5 µM.

Turning to `CCn1c(-c2cccnc2[C@H](C)OC)c2c3cc(ccc31)-c1csc(n1)C[C@H](NC(=O)[C@H](C(C)C)N(C)C(=O)N1CCC3(CC1)CN(C(=O)/C=C/CF)C3)C(=O)N1CCC[C@H](N1)C(=O)OCC(C)(C)C2` (atropisomer, axis not shown) [Example A622], the IC50 in test [1] was in the range of 0.01 to 0.1 µM; in test [3] it was 0.01 to 0.1 µM; in test [4], 0.1 to 1 µM; in test [5] it was 0.1 to 1 µM. The EC50 in test [2] was under 5 µM.

On to `C=CC(=O)N1CCC[C@@H]2CN(C(=O)N(C)[C@H](C(=O)N[C@H]3Cc4nc(cs4)-c4ccc5c(c4)c(c(-c4cccnc4[C@H](C)OC)n5CC)CC(C)(C)COC(=O)[C@@H]4CCCN(N4)C3=O)C(C)C)C[C@@H]21` (atropisomer, axis not shown) [Example A619], for which the IC50 fell in the range of 0.1 to 1 µM in test [1], 0.1 to 1 µM in test [3], 1 to 10 µM in test [4] and 1 to 10 µM in test [5]. In test [2], the EC50 was under 5 µM.

Take `C=CC(=O)N1CC2(CCN(C(=O)N(C)[C@H](C(=O)N[C@H]3Cc4nc(cs4)-c4ccc5c(c4)c(c(-c4cccnc4[C@H](C)OC)n5CC)CC(C)(C)COC(=O)[C@@H]4CCCN(N4)C3=O)C(C)C)CC2)C1` (atropisomer, axis not shown) [Example A394]: the IC50 lay within 0.01 to 0.1 µM in test [1], 0.01 to 0.1 µM in test [3], 0.1 to 1 µM in test [4] and 0.1 to 1 µM in test [5]. The EC50 in test [2] was under 5 µM.

As to `C=CC(=O)N1CC(OC[C@H](C(=O)N[C@H]2Cc3cc(cc(C(F)F)c3)-c3ccc4c(c3)c(c(-c3cccnc3[C@H](C)OC)n4CC)CC(C)(C)COC(=O)[C@@H]3CCCN(N3)C2=O)C(C)C)C1` (atropisomer, axis not shown) [Example A345], the IC50 in test [1] is 1 to 10 µM; in test [3] it was 1 to 10 µM; in test [4], over 10 µM; in test [5] it was over 10 µM. Further, the EC50 in test [2] was under 5 µM.
